Test results published in ChEMBL document CHEMBL1136349, “Identification of a monoacid-based, cell permeable, selective inhibitor of protein tyrosine phosphatase 1B” (Bioorg Med Chem Lett, 2003).

Molecular target: T1, Tyrosine-protein phosphatase non-receptor type 1 (Homo sapiens, UniProt P18031)
T1 sequence (P18031 whole entry): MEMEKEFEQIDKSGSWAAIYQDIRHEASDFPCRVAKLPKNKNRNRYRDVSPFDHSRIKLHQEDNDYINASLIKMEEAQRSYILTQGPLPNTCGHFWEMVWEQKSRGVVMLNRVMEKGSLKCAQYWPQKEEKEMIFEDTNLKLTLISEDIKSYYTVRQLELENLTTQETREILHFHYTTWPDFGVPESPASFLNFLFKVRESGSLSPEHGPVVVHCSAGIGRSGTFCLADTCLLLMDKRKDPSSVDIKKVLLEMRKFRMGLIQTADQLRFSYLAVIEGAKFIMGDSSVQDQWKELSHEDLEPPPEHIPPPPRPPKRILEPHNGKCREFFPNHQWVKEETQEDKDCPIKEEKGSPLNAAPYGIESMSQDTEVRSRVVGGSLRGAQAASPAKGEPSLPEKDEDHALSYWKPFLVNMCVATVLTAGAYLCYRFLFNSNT
Assay: Inhibition of Protein-tyrosine phosphatase 1B
Conditions: not given

SMILES	Ki
COC(=O)c1c(O)cccc1OCCCCNC(=O)[C@H](Cc1ccc(NCC(=O)O)cc1)NC(=O)OC(C)(C)C	> 200 µM
COC(=O)c1c(O)cccc1OCCCCNC(=O)[C@H](Cc1ccc(OCC(=O)O)c(C(=O)O)c1)NC(C)=O	2.2 µM
COC(=O)c1c(O)cccc1OCCCCNC(=O)[C@H](Cc1ccc(NS(=O)(=O)C(F)(F)F)cc1)NC(C)=O	> 200 µM
COC(=O)c1c(O)cccc1OCCCCNC(=O)[C@H](Cc1ccc(NC(=O)C(=O)O)cc1)NC(C)=O	6.1 µM
CCCCC(C)NC(=O)[C@H](Cc1ccc(OCC(=O)O)c(C2N=NN=N2)c1)NC(=O)[C@H](Cc1ccccc1)NC(=O)OC(C)(C)C (stereo not given in full)	2 µM
COC(=O)c1c(O)cccc1OCCCCNC(=O)[C@H](Cc1ccc(/C=C\C(=O)O)cc1)NC(=O)OC(C)(C)C	> 200 µM
COC(=O)c1c(O)cccc1OCCCCNC(=O)[C@H](Cc1ccc(OCC(=O)O)c(N)c1)NC(C)=O	> 200 µM
COC(=O)c1c(O)cccc1OCCCCNC(=O)[C@H](Cc1ccc(OC(CO)C(=O)O)cc1)NC(=O)OC(C)(C)C (stereo not given in full)	> 200 µM
COC(=O)c1c(O)cccc1OCCCCNC(=O)[C@H](Cc1ccc(NC(=O)C(F)(F)F)cc1)NC(C)=O	> 200 µM
COC(=O)c1c(O)cccc1OCCCCNC(=O)[C@H](Cc1ccc(NC(=O)c2ncccc2O)cc1)NC(C)=O	> 200 µM
COC(=O)c1c(O)cccc1OCCCCNC(=O)[C@H](Cc1ccc(NC(=O)CO)cc1)NC(C)=O	> 200 µM

System: Caco-2
Assay: Papp in Caco-2 permeability assay.
Format: functional, cell-based
Conditions: Homo sapiens

SMILES	Papp
COC(=O)c1c(O)cccc1OCCCCNC(=O)[C@H](Cc1ccc(OCC(=O)O)c(O)c1)NC(C)=O	> 10 ×10⁻⁶ cm/s
CCc1cc(CC(NC(C)=O)C(=O)NCCCCOc2cccc(O)c2C(=O)OC)ccc1N(C(=O)C(=O)O)c1ccccc1C(=O)O (stereo not given)	< 1 ×10⁻⁶ cm/s
COC(=O)c1c(O)cccc1OCCCCNC(=O)[C@H](Cc1ccc(OCC(=O)O)cc1)NC(=O)OC(C)(C)C	10 ×10⁻⁶ cm/s
COC(=O)c1c(O)cccc1OCCCCNC(=O)[C@H](Cc1ccc(NC(=O)C(=O)O)cc1)NC(=O)OC(C)(C)C	< 1 ×10⁻⁶ cm/s
